The test system of experiment [1] is Aspergillus brasiliensis ATCC 16404. Briefly: Fungicidal activity in ionic surfactant hand wash / foamy hand soap base formula (HW). It counts as cell-based. The settings on record: pH 7.0; for Log Reduction Day 12 / Log Reduction Day 5: HW, substance alone 0.5%, high loading 10^7 CFU/mL; for CFU/mL, incubation time 3 d / CFU/mL, incubation time 7 d / CFU/mL, incubation time 13 d / CFU/mL, incubation time 18 d / CFU/mL, incubation time 20 d: hand soap formula, 0.4% hydroxamic acid alone, minimum detection limit 5.0 × 10^1. The protocol: (§1) This example illustrates the preparation of testing parameters for antimicrobial activity of components of the inventive composition and related compositions for comparison. […] Microbes were grown on Mueller-Hinton agar (MHA, Sigma-Aldrich, St. Louis, Mo.) for 7 days until heavy sporulation was present. Spores from two agar plates were captured in sterile phosphate-buffered saline (PBS) using a sterile swab. Spores were enumerated by serial dilution in Dey-Engley neutralizing broth (DEB; Sigma-Aldrich) and spread plating on MHA. A typical spore stock was determined to contain ˜2×10^7 spores/mL. Bacteria were grown in MH broth for 24 h at 37° C., enumerated by plating, and diluted to the desired concentration as indicated.
All test formulas were adjusted to the desired pH using citric acid and/or NaOH. […] All tubes were kept at room temperature (˜21-22° C.) for 3 weeks. About 100 μL of each inoculated foamy hand soap mixture was diluted 1:10 in DEB and 100 μL of this dilution was spread plated on MHA at several time points (e.g. 3 d, 7 d, 13 d, 18 d, and 20 d). Plates were incubated at room temperature for 3-5 days for mold (1-2 days for bacteria) and colonies enumerated.
The preservative activity of a hydroxamic acid/guanylhydrazone combination was compared to other antimicrobial mixtures in an ionic surfactant-containing formula. […] The fungicidal properties of a mixture of benzhydroxamic acid and guanylhydrazone (1+7) was compared to commercial antimicrobials representing different functional classes (Table 3).

A further experiment has as its system S. aureus. Briefly: Minimum inhibitory concentration (MIC) in Mueller-Hinton broth, pH 7.4. Type of experiment: cell-based, Staphylococcus aureus. The procedure: as §1
(§2) To assess the antimicrobial activity of hydroxamic acids and derivatives, the inhibitory properties of commercially available hydroxylamines and hydroxamic acids were compared to their alcohol and carboxylic acid analogues diluted in Mueller-Hinton broth at pH 7.4 (Table 1).

The test system of the next experiment is P. aeruginosa. Described as above. It counts as cell-based, Pseudomonas aeruginosa. The protocol: as §1, §2
Guanylhydrazones 7 and 8, which represent a class of broad-spectrum antimicrobials, alone and in combination with hydroxamic acids were evaluated.

For the next experiment, the system named is A. brasiliensis. The experiment is described as above. Also noted: Minimum inhibitory concentration: unit not given here. As to conditions: for Minimum inhibitory concentration: Table 2. Type of experiment: cell-based, Aspergillus brasiliensis. The protocol: as §1, §2
For the next experiment, the system named is E. coli. Described as above. Type of experiment: cell-based, Escherichia coli. The procedure:
as §1, §2

For a further experiment, the system named is C. albicans. The description is as above. It counts as cell-based, Candida albicans. The procedure: as §1, §2

Where only a bound is given, the exact number is not on record here.

Consider Sorbitan caprylate, for which, in experiment [1], the “Log Reduction Day 12” value was found to be 0 Log.

`Cl.NOc1ccccc1` [O-phenylhydroxylamine HCl]: the MIC is greater than 0.5 wt % with S. aureus; 0.2 wt % in the experiment with P. aeruginosa; 0.06 wt % with A. brasiliensis; 0.3 wt % against E. coli; 0.1 wt % in the experiment on C. albicans.

In the case of `CC(C)c1ccc(C(=O)NO)cc1` [4-isopropylbenzhydroxamic acid 5, 4-isopropylbenzhydroxamic acid], in the experiment with A. brasiliensis, the Minimum inhibitory concentration is listed as 0.04. Also, in experiment [1], the “CFU/mL, incubation time 3 d” value was >2.5 × 10^4 CFU/mL; the “CFU/mL, incubation time 7 d” value is given as 1.0 × 10^4 CFU/mL; the “CFU/mL, incubation time 13 d” value was 1.0 × 10^2 CFU/mL; the “CFU/mL, incubation time 18 d” value is <5.0 × 10^1 CFU/mL. The “CFU/mL, incubation time 20 d” value in experiment [1] is reported as <5.0 × 10^1 CFU/mL.

As for `O=C1CCC(=O)N1O` [N-hydroxysuccinimide], the MIC with S. aureus is recorded as 0.5 wt %; with P. aeruginosa, 0.5 wt %; against A. brasiliensis, greater than 0.5 wt %; against E. coli it was greater than 0.5 wt %.

As for `CCON.Cl` [O-ethylhydroxylamine HCl], the MIC with S. aureus is on record as 0.1 wt %; in the experiment on P. aeruginosa it was 0.1 wt %; in the experiment with A. brasiliensis, 0.1 wt %; with E. coli it was 0.1 wt %; with C. albicans it was 0.2 wt %.

Turning to `Cl.NOCc1ccccc1` [O-benzylhydroxylamine HCl], the MIC was determined as 0.2 wt % in the experiment on S. aureus; 0.2 wt % with P. aeruginosa; 0.2 wt % in the experiment on A. brasiliensis; 0.2 wt % in the experiment on E. coli; 0.5 wt % with C. albicans.

Turning to `CON.Cl` [O-methylhydroxylamine HCl], the MIC against S. aureus stood at 0.06 wt %; with P. aeruginosa, 0.1 wt %; in the experiment with A. brasiliensis, 0.1 wt %; against E. coli, 0.2 wt %; against C. albicans, 0.5 wt %.

Consider `Cl.ONCc1ccccc1` [N-benzylhydroxylamine HCl], for which the MIC in the experiment on S. aureus came out at 0.5 wt %; with P. aeruginosa it was 0.2 wt %; in the experiment on A. brasiliensis it was 0.2 wt %; in the experiment with E. coli it was 0.5 wt %; with C. albicans it was 0.5 wt %.

As to `CCCOC(=O)c1cc(O)c(O)c(O)c1` [Propyl gallate], in experiment [1], the “Log Reduction Day 5” value was 1 Log and the “Log Reduction Day 12” value is 1 Log.

For the compound `OCc1ccccc1` [Benzyl alcohol], the MIC in the experiment on S. aureus is listed as 0.5 wt %; in the experiment on P. aeruginosa, 0.2 wt %; in the experiment on A. brasiliensis, 0.5 wt %; with E. coli it was 0.5 wt %; in the experiment with C. albicans it was 0.5 wt %.

For the compound `CCO` [Ethanol], the MIC is given as 10 wt % against S. aureus, 10 wt % with P. aeruginosa, 0.47 wt % against A. brasiliensis and 10 wt % in the experiment on C. albicans.

Consider `Oc1ccccc1` [Phenol], for which the MIC is on record as 0.2 wt % in the experiment on S. aureus; 0.2 wt % with P. aeruginosa; 0.1 wt % in the experiment on A. brasiliensis; greater than 0.5 wt % with E. coli; 0.2 wt % against C. albicans.

Regarding `CO` [Methanol], the MIC in the experiment on S. aureus turned out to be 20 wt %; in the experiment on P. aeruginosa, 20 wt %; in the experiment on A. brasiliensis it was 0.5 wt %; in the experiment on C. albicans, 20 wt %.

As to `CCCCCCC(O)CO` (stereo not shown) [Caprylyl Glycol], in experiment [1], the “Log Reduction Day 5” value was determined as 0 Log and the “Log Reduction Day 12” value came out at 1 Log.

As for `CCCc1ccc(C(=O)NO)cc1` [4-n-propylbenzhydroxamic acid 4, 4-n-propylbenzhydroxamic acid], the Minimum inhibitory concentration in the experiment with A. brasiliensis is 0.02. Moreover, in experiment [1], the “CFU/mL, incubation time 3 d” value was >2.5 × 10^4 CFU/mL; the “CFU/mL, incubation time 7 d” value is on record as >2.2 × 10^4 CFU/mL; the “CFU/mL, incubation time 13 d” value was 5.0 × 10^2 CFU/mL; the “CFU/mL, incubation time 18 d” value was 1.5 × 10^2 CFU/mL. In addition, the “CFU/mL, incubation time 20 d” value in experiment [1] is given as <5.0 × 10^1 CFU/mL.
